The molecules below were run against recombinant SARS-CoV-2 M^pro (Severe acute respiratory syndrome coronavirus 2 (2019-nCoV) (SARS-CoV-2), UniProt P0DTD1) (assay: Inhibition of SARS-CoV-2 M^pro enzyme activity (fluorescent substrate assay)). Conditions: IC50, inhibition of SARS-CoV-2 M^pro enzyme activity; values in nM.
Type: biochemical

Row | SMILES | IC50 [nM]
1 | C[C@@H](NC(=O)C(C)(C)Oc1ccc([Si](C)(C)C)cc1Cl)C(=O)N[C@H](Cc1ccccc1)C(=O)C(=O)NCc1ccccn1 [Compound 81] | 27.9 ± 5.5

Same assay, conditions: inhibition of SARS-CoV-2 M^pro enzyme activity; values given in μM; read-out: IC50

Row | SMILES | IC50 [nM]
2 | C[C@@H](NC(=O)c1ccccn1)C(=O)N[C@H](Cc1ccccc1)C(=O)C(=O)NCc1ccccn1 [Compound 141] | 1160 ± 240
3 | C[C@@H](NC(=O)c1cccnc1)C(=O)N[C@H](Cc1ccccc1)C(=O)C(=O)NCc1ccccn1 [Compound 142] | 1210 ± 890

Same assay, conditions: inhibition of SARS-CoV-2 M^pro enzyme activity; values in nM; read-out: IC50

Row | SMILES | IC50 [nM]
4 | C[C@@H](NC(=O)COC(F)(F)F)C(=O)N[C@H](Cc1ccccc1)C(=O)C(=O)NCc1ccccn1 [Compound 80] | 58.6 ± 3.2
5 | C[C@@H](NC(=O)C(C)(C)Oc1ccc(Cl)cc1F)C(=O)N[C@H](Cc1ccccc1)C(=O)C(=O)NCc1ccccn1 [Compound 82] | 5.8 ± 0.1
6 | CC(C)C(Oc1ccc(Cl)cc1)C(=O)N[C@H](C)C(=O)N[C@H](Cc1ccccc1)C(=O)C(=O)NCc1ccccn1 (some centres unmarked) [Compound 83] | 6.7 ± 0.1
7 | C[C@@H](NC(=O)COc1ccc(Cl)cc1)C(=O)N[C@H](Cc1ccccc1)C(=O)C(=O)NCc1ccccn1 [Compound 84] | 40 ± 2.4
8 | C[C@@H](NC(=O)C1CCc2cc(F)ccc2O1)C(=O)N[C@H](Cc1ccccc1)C(=O)C(=O)NCc1ccccn1 (some centres unmarked) [Compound 85] | 56.7 ± 2.7
9 | C[C@@H](NC(=O)COc1ccc(Cl)cc1F)C(=O)N[C@H](Cc1ccccc1)C(=O)C(=O)NCc1ccccn1 [Compound 86] | 70.5 ± 2.5
10 | COc1ccc(OC(C)C(=O)N[C@H](C)C(=O)N[C@H](Cc2ccccc2)C(=O)C(=O)NCc2ccccn2)cc1 (some centres unmarked) [Compound 87] | 42.1 ± 1
11 | CC(Oc1ccc(Cl)cc1Cl)C(=O)N[C@H](C)C(=O)N[C@H](Cc1ccccc1)C(=O)C(=O)NCc1ccccn1 (some centres unmarked) [Compound 88] | 24.4
12 | COc1ccccc1OCC(=O)N[C@H](C)C(=O)N[C@H](Cc1ccccc1)C(=O)C(=O)NCc1ccccn1 [Compound 89] | 40.9 ± 1.2
13 | C[C@@H](NC(=O)COc1ccc2ccccc2c1)C(=O)N[C@H](Cc1ccccc1)C(=O)C(=O)NCc1ccccn1 [Compound 91] | 48.4 ± 2
14 | COc1ccc(OCC(=O)N[C@H](C)C(=O)N[C@H](Cc2ccccc2)C(=O)C(=O)NCc2ccccn2)cc1 [Compound 92] | 26.6 ± 0.4
15 | C[C@@H](NC(=O)COc1cccc(F)c1)C(=O)N[C@H](Cc1ccccc1)C(=O)C(=O)NCc1ccccn1 [Compound 93] | 28.8 ± 1
16 | C[C@@H](NC(=O)C(F)Oc1ccc(Cl)cc1Cl)C(=O)N[C@H](Cc1ccccc1)C(=O)C(=O)NCc1ccccn1 (some centres unmarked) [Compound 94] | 13.5 ± 1.3
17 | C[C@@H](NC(=O)C(C)(C)Sc1ccc(Cl)cc1Cl)C(=O)N[C@H](Cc1ccccc1)C(=O)C(=O)NCc1ccccn1 [Compound 95] | 8.2 ± 1.1
18 | CC(Oc1ccc(C(F)(F)F)cc1)C(=O)N[C@H](C)C(=O)N[C@H](Cc1ccccc1)C(=O)C(=O)NCc1ccccn1 (some centres unmarked) [Compound 96] | 20.2 ± 0.7
19 | CC(Oc1ccc(C2CC2(Cl)Cl)cc1)C(=O)N[C@H](C)C(=O)N[C@H](Cc1ccccc1)C(=O)C(=O)NCc1ccccn1 (some centres unmarked) [Compound 97] | 37.2 ± 4.8
20 | C[C@@H](NC(=O)c1ccc(Cl)c(F)c1)C(=O)N[C@H](Cc1ccccc1)C(=O)C(=O)NCc1ccccn1 [Compound 98] | 40.7 ± 1.9
21 | C[C@@H](NC(=O)c1ccc(Cl)c(Cl)c1)C(=O)N[C@H](Cc1ccccc1)C(=O)C(=O)NCc1ccccn1 [Compound 99] | 27.8 ± 1.1
22 | C[C@@H](NC(=O)c1ccc(Cl)cc1F)C(=O)N[C@H](Cc1ccccc1)C(=O)C(=O)NCc1ccccn1 [Compound 100] | 13 ± 1.4
23 | C[C@@H](NC(=O)c1cc(F)cc(Cl)c1)C(=O)N[C@H](Cc1ccccc1)C(=O)C(=O)NCc1ccccn1 [Compound 101] | 21.6 ± 0.8

Row | SMILES | IC50 [nM]
24 | C[C@@H](NC(=O)C1Cc2ccccc2O1)C(=O)N[C@H](Cc1ccccc1)C(=O)C(=O)NCc1ccccn1 (some centres unmarked) [Compound 102] | 26.6 ± 0.4
25 | C[C@@H](NC(=O)c1ccc(F)c(S(C)(=O)=O)c1)C(=O)N[C@H](Cc1ccccc1)C(=O)C(=O)NCc1ccccn1 [Compound 103] | 28.8 ± 1
26 | C[C@@H](NC(=O)C1CC1c1ccccc1)C(=O)N[C@H](Cc1ccccc1)C(=O)C(=O)NCc1ccccn1 (some centres unmarked) [Compound 104] | 16.8 ± 1.1
27 | C[C@@H](NC(=O)c1cc(F)cc(C#N)c1)C(=O)N[C@H](Cc1ccccc1)C(=O)C(=O)NCc1ccccn1 [Compound 105] | 25.3 ± 1.7
28 | C[C@@H](NC(=O)c1cnccn1)C(=O)N[C@H](Cc1ccccc1)C(=O)C(=O)NCc1ccccn1 [Compound 106] | 161 ± 4.1
29 | C[C@@H](NC(=O)C1(O)CCCCC1)C(=O)N[C@H](Cc1ccccc1)C(=O)C(=O)NCc1ccccn1 [Compound 107] | 52 ± 0.2
30 | C[C@@H](NC(=O)c1ccnc(F)c1)C(=O)N[C@H](Cc1ccccc1)C(=O)C(=O)NCc1ccccn1 [Compound 108] | 66.4 ± 1.2
31 | C[C@@H](NC(=O)/C=C/c1ccc(F)cc1)C(=O)N[C@H](Cc1ccccc1)C(=O)C(=O)NCc1ccccn1 [Compound 109] | 168.9 ± 0.1
32 | C[C@@H](NC(=O)C1CCC(C(F)(F)F)CC1)C(=O)N[C@H](Cc1ccccc1)C(=O)C(=O)NCc1ccccn1 (some centres unmarked) [Compound 110] | 31.3 ± 0.1
33 | C[C@@H](NC(=O)CC1CCC(F)(F)CC1)C(=O)N[C@H](Cc1ccccc1)C(=O)C(=O)NCc1ccccn1 [Compound 111] | 25.3 ± 0.2
34 | C[C@@H](NC(=O)COc1cccnc1)C(=O)N[C@H](Cc1ccccc1)C(=O)C(=O)NCc1ccccn1 [Compound 112] | 112.6 ± 0.5
35 | C[C@@H](NC(=O)[C@@H](NC(=O)NC1(CS(=O)(=O)C(C)(C)C)CCCCC1)C(C)(C)C)C(=O)N[C@H](Cc1ccccc1)C(=O)C(=O)NCc1ccccn1 [Compound 113] | 69.1 ± 8.1
36 | C[C@@H](NC(=O)COC1CCCCC1)C(=O)N[C@H](Cc1ccccc1)C(=O)C(=O)NCc1ccccn1 [Compound 114] | 34.9 ± 1
37 | C[C@@H](NC(=O)COc1cccc(C#N)c1)C(=O)N[C@H](Cc1ccccc1)C(=O)C(=O)NCc1ccccn1 [Compound 115] | 37.8 ± 3
38 | C[C@@H](NC(=O)C1CCS(=O)(=O)CC1)C(=O)N[C@H](Cc1ccccc1)C(=O)C(=O)NCc1ccccn1 [Compound 116] | 130.1 ± 0.4
39 | C[C@@H](NC(=O)[C@H]1CC[C@H](C#N)CC1)C(=O)N[C@H](Cc1ccccc1)C(=O)C(=O)NCc1ccccn1 [Compound 117] | 46.1 ± 0.3
40 | C[C@@H](NC(=O)C1C2CCCC2CN1C(=O)OC(C)(C)C)C(=O)N[C@H](Cc1ccccc1)C(=O)C(=O)NCc1ccccn1 (some centres unmarked) [Compound 118] | 40.2 ± 3.4
41 | C[C@H](C(=O)N[C@H](Cc1ccccc1)C(=O)C(=O)NCc1ccccn1)N(C)C(=O)C1CCC(F)(F)CC1 [Compound 119] | 16.5 ± 1.5
42 | C[C@@H](NC(=O)C1CCC(F)(F)CC1)C(=O)N[C@H](Cc1ccccc1)C(=O)C(=O)NCc1ccc(Cl)cn1 [Compound 120] | 113.3 ± 1
43 | C[C@@H](NC(=O)C1CCC(F)(F)C1)C(=O)N[C@H](Cc1ccccc1)C(=O)C(=O)NCc1ccccn1 (some centres unmarked) [Compound 121] | 50.7 ± 0.4

Row | SMILES | IC50 [nM]
44 | C[C@@H](NC(=O)[C@H]1CC(=O)N([C@@H](C)c2ccccc2)C1)C(=O)N[C@H](Cc1ccccc1)C(=O)C(=O)NCc1ccccn1 [Compound 122] | 280.9 ± 2.3
45 | CC[C@@H](C(=O)N[C@H](C)C(=O)N[C@H](Cc1ccccc1)C(=O)C(=O)NCc1ccccn1)N1CCCC1=O [Compound 123] | 163 ± 2
46 | C[C@H](c1ccccc1)N1C[C@H](C(=O)N[C@H](C)C(=O)N[C@H](Cc2ccccc2)C(=O)C(=O)NCc2ccccn2)CC1=O [Compound 124] | 45.1 ± 0.6
47 | C[C@@H](NC(=O)CC1CCC(F)(F)CC1)C(=O)N[C@H](Cc1ccccc1)C(=O)C(=O)NCc1ccccn1 [Compound 125] | 19.7 ± 1.2
48 | C[C@@H](NC(=O)[C@H]1CC[C@@H](F)CC1)C(=O)N[C@H](Cc1ccccc1)C(=O)C(=O)NCc1ccccn1 [Compound 127] | 40.8 ± 0.6
49 | C[C@@H](NC(=O)C1(F)CCCCC1)C(=O)N[C@H](Cc1ccccc1)C(=O)C(=O)NCc1ccccn1 [Compound 128] | 9.4 ± 1.3
50 | CC(C(=O)N[C@H](C)C(=O)N[C@H](Cc1ccccc1)C(=O)C(=O)NCc1ccccn1)C1CCCCC1 (some centres unmarked) [Compound 130] | 98.6 ± 6.8
51 | C[C@@H](NC(=O)CC1CCS(=O)(=O)CC1)C(=O)N[C@H](Cc1ccccc1)C(=O)C(=O)NCc1ccccn1 [Compound 131] | 36.8 ± 0.1
52 | C[C@@H](NC(=O)c1cnn(-c2ccccc2)c1)C(=O)N[C@H](Cc1ccccc1)C(=O)C(=O)NCc1ccccn1 [Compound 132] | 158 ± 26.2
53 | C[C@@H](NC(=O)[C@H]1CC[C@@H](NC(=O)OC(C)(C)C)CC1)C(=O)N[C@H](Cc1ccccc1)C(=O)C(=O)NCc1ccccn1 [Compound 133] | 198 ± 9.6
54 | C[C@@H](NC(=O)CC1CC(F)(F)C1)C(=O)N[C@H](Cc1ccccc1)C(=O)C(=O)NCc1ccccn1 [Compound 134] | 24.5
55 | C[C@@H](NC(=O)CC1CCOCC1)C(=O)N[C@H](Cc1ccccc1)C(=O)C(=O)NCc1ccccn1 [Compound 135] | 57.3 ± 5.3
56 | C[C@@H](NC(=O)CC1CCOC(C)(C)C1)C(=O)N[C@H](Cc1ccccc1)C(=O)C(=O)NCc1ccccn1 (some centres unmarked) [Compound 136] | 96.5 ± 2.2
57 | C[C@@H](NC(=O)c1ccccc1)C(=O)N[C@H](Cc1ccccc1)C(=O)C(=O)NCc1ccccn1 [Compound 137, N—((R)-1-(((R)-3,4-dioxo-1-phenyl-4-((pyridin-2-ylmethyl)amino)butan-2-yl)amino)-1-oxopropan-2-yl)benzamide] | 22.1 ± 7.7
58 | C[C@@H](NC(=O)c1ccccc1F)C(=O)N[C@H](Cc1ccccc1)C(=O)C(=O)NCc1ccccn1 [Compound 138] | 48.6 ± 0.4
59 | C[C@@H](NC(=O)c1cccc(F)c1)C(=O)N[C@H](Cc1ccccc1)C(=O)C(=O)NCc1ccccn1 [Compound 139] | 24.3 ± 2.3
60 | C[C@@H](NC(=O)c1ccc(F)cc1)C(=O)N[C@H](Cc1ccccc1)C(=O)C(=O)NCc1ccccn1 [Compound 140] | 15.5 ± 1
61 | C[C@@H](NC(=O)c1cccc(OC(F)(F)F)c1)C(=O)N[C@H](Cc1ccccc1)C(=O)C(=O)NCc1ccccn1 [Compound 143] | 16.4 ± 1.5
62 | C[C@@H](NC(=O)c1ccc(Cl)cc1)C(=O)N[C@H](Cc1ccccc1)C(=O)C(=O)NCc1ccccn1 [Compound 144] | 19 ± 0.3
